# According to patent US20160083391A1, “TRICYCLIC PIPERAZINE DERIVATIVE” (Sunovion Pharmaceuticals Inc., priority 2014, published 2016):
# Test system: PDE1
# Assay: In vitro HTRF PDE1 inhibition assay
# Format: biochemical
# Settings: HTRF cGMP assay, 100 nM cyclic GMP, PDE (1A3, 1B or 1C) with calmodulin, 45 minutes at 37° C.; isoform of the tabulated values not stated
# Summary of the method: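 HTRF cGMP competition assay: PDE1A3, 1B or 1C with calmodulin acting on 100 nM cGMP in 1% DMSO, pH 7.4 buffer with Ca2+ and Mg2+, 45 min at 37 °C. Remaining cGMP detected with d2-cGMP and anti-cGMP cryptate (665/615 nm); IC50 reported as banded categories.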
structure (smiles),measurement,value
"O=c1c2cnc(C3CCNCC3)n2nc2n1CCN(c1ccc(Cl)cc1)C2 [Compound I-252, 7-(4-Chlorophenyl)-3-(piperidin-4-yl)-8,9-dihydro-6H-imidazo[5,1-f]pyrazino[2,1-c][1,2,4]triazin-11(7H)-one]",IC50,1000 to 10000 nM
"CCCn1ncc2c(=O)n3c(nc21)CN(Cc1ccc(Cl)cc1)CC3 [Compound I-253, 8-(4-Chlorobenzyl)-1-propyl-6,7,8,9-tetrahydropyrazino[1,2-a]pyrazolo[3,4-d]pyrimidin-4(1H)-one]",IC50,1000 to 10000 nM
"CCCn1ncc2c(=O)n3c(nc21)CN(Cc1cccc(OC)c1)CC3 [Compound I-254, 8-(3-Methoxybenzyl)-1-propyl-6,7,8,9-tetrahydropyrazino[1,2-a]pyrazolo[3,4-d]pyrimidin-4(1H)-one]",IC50,1000 to 10000 nM
"CCCn1ncc2c(=O)n3c(nc21)CN(Cc1ccc2c(c1)OCO2)CC3 [Compound I-255, 8-(Benzo[d][1,3]dioxol-5-ylmethyl)-1-propyl-6,7,8,9-tetrahydropyrazino[1,2-a]pyrazolo[3,4-d]pyrimidin-4(1H)-one]",IC50,1000 to 10000 nM
"COCCn1ncc2c(=O)n3c(nc21)CN(c1ccc(Cl)cc1)CC3 [Compound I-256, 8-(4-Chlorophenyl)-1-(2-methoxyethyl)-6,7,8,9-tetrahydropyrazino[1,2-a]pyrazolo[3,4-d]pyrimidin-4(1H)-one]",IC50,1000 to 10000 nM
"COCCn1ncc2c(=O)n3c(nc21)CN(c1ccc(Cl)c(Cl)c1)CC3 [Compound I-257, 8-(3,4-Dichlorophenyl)-1-(2-methoxyethyl)-6,7,8,9-tetrahydropyrazino[1,2-a]pyrazolo[3,4-d]pyrimidin-4(1H)-one]",IC50,1000 to 10000 nM
"O=c1n2c(nc3c(C4CCCC4)ncn13)CN(Cc1ccc(Cl)cc1)CC2 [Compound I-258, 6-(4-Chlorobenzyl)-3-cyclopentyl-7,8-dihydro-5H-imidazo[1,5-a]pyrazino[2,1-d][1,3,5]triazin-10(6H)-one]",IC50,< 1000 nM
